Several values for one entry are separate records, joined by “and”; a condition that tells them apart may be missing. Identical values can stand only once.
Legend:
mA1AR = target: T1, mA1AR (Mus musculus, UniProt Q60612); experiment: Competition radioligand binding, mA1AR; details: for inhibition at 10 µM: mouse A1AR, percent inhibition at 10 μM
T1 construct: expressed in transfected cells; host or cells: HEK-293
T1 sequence (Q60612 1-326): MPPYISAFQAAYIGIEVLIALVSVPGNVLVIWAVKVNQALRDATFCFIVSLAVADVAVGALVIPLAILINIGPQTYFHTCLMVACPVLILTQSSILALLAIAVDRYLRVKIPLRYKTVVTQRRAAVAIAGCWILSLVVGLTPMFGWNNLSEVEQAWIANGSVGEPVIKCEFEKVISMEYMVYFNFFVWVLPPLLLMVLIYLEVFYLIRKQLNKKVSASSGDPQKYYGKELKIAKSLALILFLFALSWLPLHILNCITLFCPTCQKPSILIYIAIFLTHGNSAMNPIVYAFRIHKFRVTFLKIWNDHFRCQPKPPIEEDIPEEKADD
Description: (§1) The affinity of the amine congeners and other antagonists was measured using standard radioligand binding assays for hA1, A2A and A3ARs (Table 1).[1],[13],[14],[22] Membranes of human embryonic kidney (HEK)293 cells expressing the AR of interest were used in the assay. Primary amine congeners 6a–6d containing spacers of 2–5 methylenes were similar in terms of hA2AAR affinity (Ki 6–9 nM), with the butylamino congener 6c displaying the highest A2AAR selectivity in the series. The affinity of this compound for the hA3AR was determined to be 6.0 μM, with only slightly higher hA1AR affinity. Homologation to 6 methylenes in compound 6e lowered A2AAR affinity. […] No dependence of the affinity on the chain length was evident when comparing AlexaFluor647 conjugates 9 and 10. […]
(§2) Radioligand binding assays: Cell membranes were prepared as reported.1
(§3) Binding assays were carried out using standard radioligands and membrane preparations from HEK-293 cells stably expressing the human (h) A1, A2A or A3ARs or mouse (m) A1, A2A or A3ARs. The radioligands used were: A1AR, [3H]8-cyclopentyl-1,3-dipropylxanthine 14; A2AAR, [3H]2; A3AR, [125I]N6-(4-amino-3-iodobenzyl)adenosine-5′-N-methyluronamide 16. The radioligand for archival A2AAR affinity data presented in Table 1 was [3H]2-[p-(2-carboxyethyl)phenyl-ethylamino]-5′-N-ethylcarboxamidoadenosine 15. Nonspecific binding was determined using 10 µM 8-[4-[[[[(2-aminoethyl)amino]carbonyl]methyl]oxy]phenyl]-1,3-dipropylxanthine 17 (A1AR and A2AAR) or 10 µM adenosine-5′-N-ethyluronamide 18 (A3AR). HEK-293 cells expressing recombinant mA1, A2A, or A3AR […]
(§4) Protein was determined as reported.2 In all the binding experiments, IC50 values and Ki values were calculated using GraphPad Prism software (San Diego, CA). Values are expressed as mean±SEM. […]
(§5) Med. Chem. Comm., 2015, 6:555-563.
(§6) 2. Bradford, M. M. A rapid and sensitive method for the quantitation of microgram quantities of protein utilizing the principle of protein -dye binding. Anal. Biochem. 1976, 72, 248-254.

A1AR = target: T2, A1AR (Homo sapiens, UniProt P30542); experiment: Competition radioligand binding, hA1AR ([3H]DPCPX); details: [3H]DPCPX 0.5 nM; for Ki: HEK-293 membranes, 1 h 25 °C, mean ± SEM, read-out: Affinity, Ki, A1
T2 construct: expressed in transfected cells
T2 sequence (P30542 1-326): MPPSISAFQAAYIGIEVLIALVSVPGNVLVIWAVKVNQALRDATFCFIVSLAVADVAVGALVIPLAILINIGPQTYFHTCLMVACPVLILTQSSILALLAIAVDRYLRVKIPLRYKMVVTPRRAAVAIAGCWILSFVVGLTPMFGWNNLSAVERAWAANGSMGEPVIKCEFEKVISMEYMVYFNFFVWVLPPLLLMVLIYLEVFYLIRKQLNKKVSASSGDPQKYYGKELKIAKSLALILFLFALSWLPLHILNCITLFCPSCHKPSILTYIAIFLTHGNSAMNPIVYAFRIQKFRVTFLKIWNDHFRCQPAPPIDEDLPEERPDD
Description: as §1, §2, §3, §4, §5, §6

mA2AAR = target: T3, mA2AAR (Mus musculus, UniProt Q60613); experiment: Competition radioligand binding, mA2AAR; details: mouse A2AAR, HEK-293 membranes, mean ± SEM; read-out: Affinity, Ki, A2A (m) (converted)
T3 construct: expressed in transfected cells; host or cells: HEK-293
T3 sequence (Q60613 whole entry): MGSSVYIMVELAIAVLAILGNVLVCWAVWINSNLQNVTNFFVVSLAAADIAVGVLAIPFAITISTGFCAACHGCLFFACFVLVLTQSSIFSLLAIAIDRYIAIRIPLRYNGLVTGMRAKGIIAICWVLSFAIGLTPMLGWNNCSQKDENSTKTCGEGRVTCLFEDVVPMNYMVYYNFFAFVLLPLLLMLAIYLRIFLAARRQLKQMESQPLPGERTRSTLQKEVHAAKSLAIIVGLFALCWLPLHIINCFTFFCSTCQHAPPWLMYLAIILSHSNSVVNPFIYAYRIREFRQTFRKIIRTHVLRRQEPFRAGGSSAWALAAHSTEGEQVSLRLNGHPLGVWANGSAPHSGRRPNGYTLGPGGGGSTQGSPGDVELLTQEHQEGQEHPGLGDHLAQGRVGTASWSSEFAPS
Description: The affinity of the amine congeners and other antagonists was measured using standard radioligand binding assays for hA1, A2A and A3ARs (Table 1).[1],[13],[14],[22] Membranes of human embryonic kidney (HEK)293 cells expressing the AR of interest were used in the assay. Primary amine congeners 6a–6d containing spacers of 2–5 methylenes were similar in terms of hA2AAR affinity (Ki 6–9 nM), with the butylamino congener 6c displaying the highest A2AAR selectivity in the series. The affinity of this compound for the hA3AR was determined to be 6.0 μM, with only slightly higher hA1AR affinity. Homologation to 6 methylenes in compound 6e lowered A2AAR affinity. […] No dependence of the affinity on the chain length was evident when comparing AlexaFluor647 conjugates 9 and 10.
Cell culture for membrane binding assays and flow cytometry: HEK-293 cells stably expressing the A2AAR were grown in Dulbecco’s Modified Eagle’s Medium (DMEM) with 10% FBS, 100 units/ml penicillin, […] streptomycin, 2 mM L-glutamine and 0.500 mg/mL G418 Sulfate (Geneticin). […]
as §2, §3, §4, §5, §6

mA3AR = target: T4, mA3AR (Mus musculus, UniProt Q61618); experiment: Competition radioligand binding, mA3AR; details: for inhibition at 10 µM: mouse A3AR, percent inhibition at 10 μM, read-out: % inhib, A3 (m) (converted)
T4 construct: expressed in transfected cells; host or cells: HEK-293
T4 sequence (Q61618 1-319): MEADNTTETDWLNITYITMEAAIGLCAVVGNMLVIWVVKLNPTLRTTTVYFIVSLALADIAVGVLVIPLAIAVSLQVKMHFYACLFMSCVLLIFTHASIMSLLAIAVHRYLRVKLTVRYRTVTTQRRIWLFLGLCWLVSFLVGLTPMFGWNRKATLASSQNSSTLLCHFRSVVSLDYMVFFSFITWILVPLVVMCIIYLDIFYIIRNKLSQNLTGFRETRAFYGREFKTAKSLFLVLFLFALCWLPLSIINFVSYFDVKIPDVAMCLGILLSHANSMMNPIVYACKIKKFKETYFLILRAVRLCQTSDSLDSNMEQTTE
Description: as §1, §2, §3, §4, §5, §6

A3AR = target: T5, A3AR (Homo sapiens, UniProt P0DMS8); experiment: Competition radioligand binding, hA3AR ([125I]I-AB-MECA); details: [125I]I-AB-MECA 0.2 nM; for inhibition at 10 µM: percent inhibition at 10 μM, read-out: % inhib, A3
T5 construct: expressed in transfected cells
T5 sequence (P0DMS8 1-318): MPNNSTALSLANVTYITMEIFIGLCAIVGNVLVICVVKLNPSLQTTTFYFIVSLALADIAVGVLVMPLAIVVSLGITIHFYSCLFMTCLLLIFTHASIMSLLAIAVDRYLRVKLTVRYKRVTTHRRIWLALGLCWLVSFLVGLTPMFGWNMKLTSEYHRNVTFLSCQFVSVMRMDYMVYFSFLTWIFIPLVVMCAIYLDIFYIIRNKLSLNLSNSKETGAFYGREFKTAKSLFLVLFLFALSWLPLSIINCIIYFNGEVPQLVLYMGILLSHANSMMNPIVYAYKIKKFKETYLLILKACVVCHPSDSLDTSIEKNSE
Description: as §1, §2, §3, §4, §5, §6

Nc1nc2c(cnn2CCCc2ccc(OCC(=O)NCCCCNC(=O)CCCCCNC(=O)COc3ccc(/C=C/C4=[N+]5C(=Cc6ccc(-c7cccs7)n6[B-]5(F)F)C=C4)cc3)cc2)c2nc(-c3ccco3)nn12 [compound 11]
inhibition at 10 µM (mA1AR): 0% | inhibition at 10 µM (A1AR; percent inhibition at 10 μM): 40% | Ki (mA2AAR): 0.0021 µM and 0.00209 µM | inhibition at 10 µM (mA3AR): 2% | inhibition at 10 µM (A3AR): 33%

CCN(CC)CC.CCN(CC)CC.N=c1ccc2c(-c3ccc(C(=O)NCCCCNC(=O)COc4ccc(CCCn5ncc6c5nc(N)n5nc(-c7ccco7)nc65)cc4)cc3C(=O)O)c3ccc(N)c(S(=O)(=O)O)c3oc-2c1S(=O)(=O)O [compound 12]
inhibition at 10 µM (mA1AR): 0% | Ki (A1AR): 1.68 ± 0.47 µM | Ki (mA2AAR): 0.585 µM | inhibition at 10 µM (mA3AR): 5% | inhibition at 10 µM (A3AR): 32%

N.Nc1nc2c(cnn2CCCc2ccc(OCc3ccc(S(=O)(=O)O)cc3)cc2)c2nc(-c3ccco3)nn12 [compound 13]
inhibition at 10 µM (mA1AR): 21% | binding to the mA1AR (mA1AR; result in words): insignificant | Ki (A1AR): 4.19 ± 0.75 µM | Ki (mA2AAR): 0.0641 µM | inhibition at 10 µM (mA3AR): 4% | binding to the mA3AR (mA3AR; result in words): insignificant | Ki (A3AR; HEK-293 membranes, 1 h 25 °C, mean ± SEM, read-out: Affinity, Ki, A3): 2.66 ± 1.25 µM

From article PMC5729930, “Bitopic fluorescent antagonists of the A2A adenosine receptor based on pyrazolo[4,3-e][1,2,4]triazolo[1,5-c]pyrimidin-5-amine functionalized congeners” (MedChemComm, 2017)
